Test results reported in patent US8987449B2, “Medicine for treating ischemic brain injury and its sequelae, and preparation method thereof” (Haimin Lei, priority 2011, dated 2015).

How the values were obtained:
[1] = system: chicken chorioallantoic membrane (CAM); test: Effect of LQC-T on CAM angiogenesis (CAM method, vessel count); format: in vivo; conditions: 20 μg/chicken embryo
Description: Embryonated chicken eggs of Lohmann of German, egg weight 50-60 g (embryo experiment center of Chinese Agriculture University)
LQC-T (1-6) (prepared by the methods of examples 2-7), wherein the purity was ≧98%, determined by high performance liquid chromatography (HPLC), meeting the requirements of the experiment. The powder was carefully sealed and preserved at 4° C.
Aseptic gelatin sponge, which was made into a wafer having a diameter of 5 mm by a hole-puncher in advance, was used as sample carrier. The prepared LQC-T series compounds were added according to 20 μg/chicken embryo in an aseptic environment. The 0.9% physiological saline was used in a blank group. The samples were air-dried in an aseptic environment.
A hatching egg after disinfection was put into a 37° C. incubation box with air sac upward until the seventh day of incubation. The egg embryo was disinfected using alcohol at a super clean bench, and then a small hole was drilled at the top of the egg embryo using a dental drill, and the nearby egg shell and shell membrane were removed carefully to form the opening with the size of about 1.2 cm×1.2 cm. After spotting the location for applying the sample, the air sac was broken with injection needle at the interface between air sac and the yolk and then 1-2 drops of aseptic physiological saline was injected so that the air sac membrane was separated from CAM membrane. Then the upper air sac membrane was slightly removed with a nipper to expose the lower CAM membrane.
The medicine-containing carrier was softly put by a nipper at the locations of CAM and yolk cyst membrane with fewer vessels, the opening was then sealed with aseptic transparent tape and incubation was continued for another 72 h.
After the incubation, the transparent tape blocking the chicken embryo air sac was removed with a nipper. The liquid of equal-volumetrically mixed methanol/acetone 1-2 ml was added and fixed at room temperature for 10 min. The CAM membrane was carefully removed and put it onto a slide. Then it was observed and a photograph was taken. The effect of the compounds on angiogenesis was evaluated by the count analytic method using the numbers of great vessels, medium vessels and small vessels arranged radially around by the carrier.
All the data were statistically analyzed using SPSS11.0 software pack. The difference between the administration group and the blank group was given through one-way variance analysis. P<0.05 had statistical significance.

ICR white mice = test: Acute toxic experiment of mice by oral administration; format: in vivo, mouse; design: key to Animal reaction in 14 days after the administration: appearance / Animal reaction in 14 days after the administration: behavior / Animal reaction in 14 days after the administration: hair / Animal reaction in 14 days after the administration: respiration / Animal reaction in 14 days after the administration: posture / Animal reaction in 14 days after the administration: reaction: ✓ means normal; conditions: for Animal reaction in 14 days after the administration: death: 10 animals; for Animal reaction in 14 days after the administration: death / Animal reaction in 14 days after the administration: appearance / Animal reaction in 14 days after the administration: behavior / Animal reaction in 14 days after the administration: hair / Animal reaction in 14 days after the administration: posture / Animal reaction in 14 days after the administration: reaction / Animal reaction in 14 days after the administration: respiration: oral 3 x 1800 mg/kg (5400 mg/kg) in one day
Description: ICR white mice (half female and half male, 18-22 g, experiment animal certificate No.: SCXK (Jing) 2006-0009);
LQC-T4 (white powder (self made); and LQC-T4 4500 mg was dissolved into 0.5% sodium carboxymethyl cellulose 100 ml and then suspended by supersonic wave. The suspension was used in situ).
The qualified animals were quarantined and weighed before the administration. The animals were divided into groups randomly by weight. The intragastric administration tool was used for mice to carry out the intragastric administration. The mice were fasted but not water-deprived (continuously for 14 h) overnight before being administrated. The mice were administrated at 9:00 AM for the first time (1800 mg/kg) on the present administration day and observed continuously for 1 h. The mice were administrated for the second time (1800 mg/kg) at an interval of 6 h since the first administration and observed continuously for 1 h. The mice were administrated for the third time (1800 mg/kg) at an interval of 6 h since the second administration, observed continuously for 1 h and then the mice were fed.

COc1cc(C(=O)OCc2nc(C)c(C)nc2C)ccc1OCc1nc(C)c(C)nc1C [LQC-T4, (3,5,6-trimethylpyrazine-2-yl)methyl 3-methoxy-4-((3,5,6-trimethylpyrazine-2-yl)methoxy) benzoate]
No death was observed: death in 12 h after the administration (ICR white mice; mice, oral 3 x 1800 mg/kg)
significant promoting effect: effect on growth of new (small) vessels compared with the blank group ([1]; result in words)
No toxic reaction was observed: toxic reaction at the maximum dosage (ICR white mice; mice, oral, maximum dosage of 5400 mg/kg, observed continuously for 14 days)
14.4 ± 2.16: small vessel angiogenesis of CAM model, Medicine group (X ± S) ([1]; 72 h incubation, number of small vessels, blank group 8.67 ± 1.03)
0: Animal reaction in 14 days after the administration: death (ICR white mice; mice ♀) | Animal reaction in 14 days after the administration: death (ICR white mice; mice ♂)
✓: Animal reaction in 14 days after the administration: appearance (ICR white mice; mice ♀) | Animal reaction in 14 days after the administration: behavior (ICR white mice; mice ♀) | Animal reaction in 14 days after the administration: hair (ICR white mice; mice ♀) | Animal reaction in 14 days after the administration: posture (ICR white mice; mice ♀) | Animal reaction in 14 days after the administration: reaction (ICR white mice; mice ♀) | Animal reaction in 14 days after the administration: respiration (ICR white mice; mice ♀) | Animal reaction in 14 days after the administration: appearance (ICR white mice; mice ♂) | Animal reaction in 14 days after the administration: behavior (ICR white mice; mice ♂) | Animal reaction in 14 days after the administration: hair (ICR white mice; mice ♂) | Animal reaction in 14 days after the administration: posture (ICR white mice; mice ♂) | Animal reaction in 14 days after the administration: reaction (ICR white mice; mice ♂) | Animal reaction in 14 days after the administration: respiration (ICR white mice; mice ♂)
